What was measured:
Staph. aureus = experiment: Minimal bactericidal concentration (MBC) assay; type: cell-based, Staphylococcus aureus
Experimental: (§1) Minimal bactericidal concentration (MBC) assay—Overnight-grown MIC plates, prepared as described in Example 16, were evaluated to determine the MIC. Culture was then sampled from wells at and near the MIC using sterile inoculating loops, and transferred to fresh MHA plates to determine if viable bacteria remained. […] The MBC was determined as the well in the MIC plate which contained the lowest concentration of silver yielding no bacterial growth on the MHA plate.

Staph epidermidis = experiment: Minimal bactericidal concentration (MBC) assay; type: cell-based, Staphylococcus epidermidis
Experimental: as §1

[1] = tested on: Staphylococcus epidermidis; experiment: MIC assay; type: cell-based
Enterobacter cloacae = experiment: MIC assay; type: cell-based; details: Enterobacter cloacae
E. coli = experiment: Minimal bactericidal concentration (MBC) assay; type: cell-based, Escherichia coli
Experimental: as §1

Proteus mirabilis = experiment: MIC assay; type: cell-based; details: Prot. mirabilis isolate NP405
Burkholderia multivorans = experiment: MIC assay; type: cell-based
B. multivorans = experiment: Minimal bactericidal concentration (MBC) assay; type: cell-based, Burkholderia multivorans
Experimental: as §1

C. freundii = experiment: Minimal bactericidal concentration (MBC) assay; type: cell-based, Citrobacter freundii; details: C. freundii isolate NP410
Experimental: as §1

B dolosa = experiment: Minimal bactericidal concentration (MBC) assay; type: cell-based, Burkholderia dolosa
Experimental: as §1

Escherichia coli = experiment: MIC assay; type: cell-based
Citrobacter freundii = experiment: MIC assay; type: cell-based; details: C. freundii isolate NP410
Streptococcus pneumoniae = experiment: MIC assay; type: cell-based; details: solutions in 0.1 M lactate buffer pH 4.0
Prot. mirabilis = experiment: Minimal bactericidal concentration (MBC) assay; type: cell-based, Proteus mirabilis; details: Prot. mirabilis isolate NP405
Experimental: as §1

Pseudomonas aeruginosa = experiment: MIC assay; type: cell-based; details: for NP212 MIC: P. aeruginosa isolate NP212; for NP213 MIC: P. aeruginosa isolate NP213; for NP214 MIC: P. aeruginosa isolate NP 214
Strep. pyogenes = experiment: Minimal bactericidal concentration (MBC) assay; type: cell-based, Streptococcus pyogenes
Experimental: as §1

Ser. marcescens = experiment: Minimal bactericidal concentration (MBC) assay; type: cell-based, Serratia marcescens
Experimental: as §1

Streptococcus pyogenes = experiment: MIC assay; type: cell-based
K. pneumoniae = experiment: Minimal bactericidal concentration (MBC) assay; type: cell-based, Klebsiella pneumoniae
Experimental: as §1

Staphylococcus aureus = experiment: MIC assay; type: cell-based; details: for NP101 MIC: Staph aureus isolate NP101; for NP102 MIC: Staph aureus isolate NP102; for NP103 MIC: Staph aureus isolate NP103
Serratia marcescens = experiment: MIC assay; type: cell-based
Burkholderia dolosa = experiment: MIC assay; type: cell-based
Ps. aeruginosa = experiment: Minimal bactericidal concentration (MBC) assay; type: cell-based, Pseudomonas aeruginosa
Experimental: as §1

[2] = Staph. aureus ATCC type strain 6538
[3] = Staph. aureus ATCC type strain 700699
[4] = Staph epidermidis ATCC type strain 12228
[5] = Staph epidermidis isolate NP136
[6] = formulation type Water/Lecithin
[7] = Ps. aeruginosa ATCC type strain 27317
[8] = Ser. marcescens isolate NP402 (first listing)
[9] = Ser. marcescens isolate NP402 (second listing)
[10] = Ser. marcescens isolate NP408 (first listing)
[11] = Ser. marcescens isolate NP408 (second listing)

## O=[N+]([O-])[O-].[Ag+] [AgNO3, silver nitrate]
Staph. aureus; [2]
  MBC: 6 parts silver per million
Staph. aureus; [3]
  MBC: 6 parts silver per million
Staph. aureus; Staph. aureus isolate NP101
  MBC: 11 parts silver per million
Staph. aureus; Staph. aureus isolate NP102
  MBC: 6 parts silver per million
Staph. aureus; Staph. aureus isolate NP103
  MBC: 6 parts silver per million
Staph epidermidis; [4]
  MBC: 3 parts silver per million
Staph epidermidis; [5]
  MBC: 3 parts silver per million
[1]; S. epiderm (ATCC), solutions in 0.1 M lactate buffer pH 4.0
  MIC: 3 µg/mL
[1]; [4]
  MIC: 3 parts silver per million
[1]; [5]
  MIC: 3 parts silver per million
Enterobacter cloacae; aerobic conditions (+)
  MIC: 13 µg/mL
Enterobacter cloacae; anaerobic conditions (Aerobic −)
  MIC: 25 µg/mL
E. coli; E. coli ATCC type strain 8739
  MBC: 0.4 parts silver per million
E. coli; E. coli ATCC type strain 43745
  MBC: 0.4 parts silver per million
E. coli; E. coli isolate NP412
  MBC: 1 parts silver per million
Proteus mirabilis
  MIC: 6 parts silver per million
Burkholderia multivorans; B. multivorans isolate B1
  MIC: 3 parts silver per million
Burkholderia multivorans; B. multivorans isolate B2
  MIC: 3 parts silver per million
Burkholderia multivorans; B. multivorans isolate B4
  MIC: 2 parts silver per million
B. multivorans; B. multivorans isolate B1
  MBC: 3 parts silver per million
B. multivorans; B. multivorans isolate B2
  MBC: 3 parts silver per million
B. multivorans; B. multivorans isolate B4
  MBC: 3 parts silver per million
C. freundii
  MBC: 3 parts silver per million
B dolosa; B dolosa isolate A3
  MBC: 3 parts silver per million
B dolosa; B dolosa isolate A4
  MBC: 2 parts silver per million
Escherichia coli; E. coli (ATCC), solutions in 0.1 M lactate buffer pH 4.0
  MIC: 3 µg/mL
Escherichia coli; E. coli ATCC type strain 8739
  MIC: 0.4 parts silver per million
Escherichia coli; E. coli ATCC type strain 43745
  MIC: 1 parts silver per million
Escherichia coli; E. coli isolate NP412
  MIC: 1 parts silver per million
Citrobacter freundii
  MIC: 3 parts silver per million
Streptococcus pneumoniae; S. pneumo (clin 314)
  MIC: 11 µg/mL
Streptococcus pneumoniae; S. pneumo (clin 315)
  MIC: 21 µg/mL
Prot. mirabilis
  MBC: 13 parts silver per million
Pseudomonas aeruginosa; P. aerug (ATCC), solutions in 0.1 M lactate buffer pH 4.0
  MIC: 3 µg/mL
Pseudomonas aeruginosa; P. aerug. (clin.), solutions in 0.1 M lactate buffer pH 4.0
  MIC: 3 µg/mL
Pseudomonas aeruginosa; formulation type Lactate
  NP212 MIC: 2 ppm
  NP213 MIC: 1 ppm
  NP214 MIC: 1 ppm
Pseudomonas aeruginosa; [6]
  NP212 MIC: 3 ppm
  NP213 MIC: 1 ppm
  NP214 MIC: 1 ppm
Pseudomonas aeruginosa; formulation type Water/PVA
  NP212 MIC: 3 ppm
  NP213 MIC: 1 ppm
  NP214 MIC: 3 ppm
Pseudomonas aeruginosa; Ps. aeruginosa ATCC type strain 9027
  MIC: 1 parts silver per million
Pseudomonas aeruginosa; [7]
  MIC: 2 parts silver per million
Pseudomonas aeruginosa; Ps. aeruginosa isolate NP201
  MIC: 1 parts silver per million
Pseudomonas aeruginosa; Ps. aeruginosa isolate NP204
  MIC: 1 parts silver per million
Pseudomonas aeruginosa; Ps. aeruginosa isolate NP206
  MIC: 1 parts silver per million
Strep. pyogenes; Strep. pyogenes isolate NP303
  MBC: 10 parts silver per million
Strep. pyogenes; Strep. pyogenes isolate NP304
  MBC: 21 parts silver per million
Strep. pyogenes; Strep. pyogenes isolate NP306
  MBC: 21 parts silver per million
Ser. marcescens; [8]
  MBC: 6 parts silver per million
Ser. marcescens; [9]
  MBC: 6 parts silver per million
Ser. marcescens; [10]
  MBC: 6 parts silver per million
Ser. marcescens; [11]
  MBC: 11 parts silver per million
Streptococcus pyogenes; S. pyog (clin. 303), solutions in 0.1 M lactate buffer pH 4.0
  MIC: 3 µg/mL
Streptococcus pyogenes; S. pyog (clin. 304), solutions in 0.1 M lactate buffer pH 4.0
  MIC: 5 µg/mL
Streptococcus pyogenes; Strep. pyogenes isolate NP303
  MIC: 3 parts silver per million
Streptococcus pyogenes; Strep. pyogenes isolate NP304
  MIC: 6 parts silver per million
Streptococcus pyogenes; Strep. pyogenes isolate NP306
  MIC: 6 parts silver per million
K. pneumoniae; K. pneumoniae isolate NP401
  MBC: 3 parts silver per million
K. pneumoniae; K. pneumoniae isolate NP403 (first listing)
  MBC: 6 parts silver per million
K. pneumoniae; K. pneumoniae isolate NP403 (second listing)
  MBC: 3 parts silver per million
K. pneumoniae; K. pneumoniae isolate NP406
  MBC: 1 parts silver per million
Staphylococcus aureus; S. aureus (ATCC), solutions in 0.1 M lactate buffer pH 4.0
  MIC: 11 µg/mL
Staphylococcus aureus; S. aureus (clin.), solutions in 0.1 M lactate buffer pH 4.0
  MIC: 5 µg/mL
Staphylococcus aureus; formulation type Lactate
  NP101 MIC: 9 ppm
  NP102 MIC: 9 ppm
  NP103 MIC: 9 ppm
Staphylococcus aureus; [6]
  NP101 MIC: 11 ppm
  NP102 MIC: 11 ppm
  NP103 MIC: 11 ppm
Staphylococcus aureus; formulation type Water/PVA
  NP101 MIC: 11 ppm
  NP102 MIC: 11 ppm
  NP103 MIC: 11 ppm
Staphylococcus aureus; [2]
  MIC: 6 parts silver per million
Staphylococcus aureus; [3]
  MIC: 3 parts silver per million
Staphylococcus aureus; Staph. aureus isolate NP101
  MIC: 6 parts silver per million
Staphylococcus aureus; Staph. aureus isolate NP102
  MIC: 6 parts silver per million
Staphylococcus aureus; Staph. aureus isolate NP103
  MIC: 6 parts silver per million
Serratia marcescens; [8]
  MIC: 6 parts silver per million
Serratia marcescens; [9]
  MIC: 6 parts silver per million
Serratia marcescens; [10]
  MIC: 6 parts silver per million
Serratia marcescens; [11]
  MIC: 11 parts silver per million
Serratia marcescens; Serratia marcescens, aerobic conditions (+)
  MIC: 6 µg/mL
Serratia marcescens; Serratia marcescens, anaerobic conditions (Aerobic −)
  MIC: 13 µg/mL
Burkholderia dolosa; B dolosa isolate A3
  MIC: 2 parts silver per million
Burkholderia dolosa; B dolosa isolate A4
  MIC: 2 parts silver per million
Ps. aeruginosa; [7]
  MBC: 3 parts silver per million
Ps. aeruginosa; Ps. aeruginosa isolate NP201
  MBC: 3 parts silver per million
Ps. aeruginosa; Ps. aeruginosa isolate NP204
  MBC: 3 parts silver per million
Ps. aeruginosa; Ps. aeruginosa isolate NP206
  MBC: 1 parts silver per million

Reference: patent US20080050452A1, “METAL-CONTAINING FORMULATIONS AND METHODS OF USE” (priority 2006, published 2008)
